# Measured values from US9451771B2, “Compositions and methods to attract the brown marmorated stink bug (BMSB), Halyomorpha halys” (United States of America as Represented by the Secretary of …, priority 2012, dated 2016).
# Test system: brown marmorated stink bug (BMSB), Halyomorpha halys
# Assay: Synergy trials for attraction of BMSB to #10 and MDT, black pyramid traps
# Format: in vivo
# Protocol: Synergy trials for attraction of BMSB to #10 and methyl (2E,4E,6Z)-decatrieonate (MDT): From 6 Apr. to 23 Oct. […] Va. (3 replicates), we tested the following four treatments for attraction of BMSB adults and nymphs, using a full-sized black pyramid trap adapted for BMSB (see above): (1) #10 lure (Table 4) replaced every 2 weeks; (2) #3 lure, MDT, (Sterling International, Spokane, Wash.; ˜119 mg loading; see text below), replaced every 4 weeks; (3) #14 lure, in which #10 and MDT lures hung together in trap, replaced as above for each lure; and (4) no lure (control).
# The MDT lure obtained from Sterling International was extracted with pentane which yielded 420 mg of crude product. According to TLC analysis on silica using dichloromethane, the extracted material contained MTD (Rf 0.46) plus unknown chemical(s) with Rf 0.20. This material was flash chromatographed on silica with hexane:dichloromethane, 1:1, to obtain 119 mg of pure MDT. The identity of MDT was re-confirmed by comparison of the gas chromatographic retention time and mass-spectrum with those of a standard prepared according to Khrimian (Khrimian, A., Tetrahedron, 61: 3651-3657 (2005)).
# Traps were checked and collected twice-weekly in Beltsville, and weekly in Arden, as described previously, and the treatments were re-randomized at each collection. Field trapping results were summed by approximately two-week intervals, and the totals for each replicate analyzed by ANOVA and additionally with Tukey's HSD multiple comparisons at α=0.05 if the overall 1-way ANOVA F-test was significant at α=0.05. In addition, a two-way ANOVA with interaction was tested to determine if the combined lure provoked a different level of attractiveness (a significant interaction) than would be expected from a combination of the attractiveness of each separate lure type. Such an interaction, with numbers exceeding the expected attraction for the combined lure, represents a true synergy of the two lures.
# [1] = Arden, WV 2012, 15May-23 Oct, TOTAL
# [2] = Arden, WV 2012, Aug2-13, 11-day total
# [3] = Arden, WV 2012, Aug13-27, 14-day total
# [4] = Arden, WV 2012, Aug27-Sep10, 14-day total
# [5] = Arden, WV 2012, July2-17, 15-day total
# [6] = Arden, WV 2012, July17-Aug2, 16-day total
# [7] = Arden, WV 2012, June4-19, 15-day total
# [8] = Arden, WV 2012, June19-July2, 13-day total
# [9] = Arden, WV 2012, May 16-23, 7-day total
# [10] = Arden, WV 2012, May23-Jun4, 14-day total
# [11] = Arden, WV 2012, Oct9-23, 14-day total
# [12] = Arden, WV 2012, Sep10-24, 14-day total
# [13] = Arden, WV 2012, Sep24-Oct9, 17-day total
# [14] = Arden, WV, 3 replicates, 20 May through 23 Oct. 2012
# [15] = Arden, WV, 20 May through 23 Oct. 2012
# [16] = Beltsville, MD 2012, 4-22 May, 18-day total, 4 traps/trtmt
# [17] = Beltsville, MD 2012, 5-19 June, 14-day total, 4 traps/trtmt
# [18] = Beltsville, MD 2012, 5-23Oct, 18-day total, 4 traps/trtmt
# [19] = Beltsville, MD 2012, 6-20 April, 14-day total, 4 traps/trtmt
# [20] = Beltsville, MD 2012, 6APR-23OCT, Total
# [21] = Beltsville, MD 2012, 6APR-23OCT, Total, 4 traps/trtmt
# [22] = Beltsville, MD 2012, 7-21 Sept, 14-day total, 4 traps/trtmt
# [23] = Beltsville, MD 2012, 10-24 Aug, 14-day total, 4 traps/trtmt
# [24] = Beltsville, MD 2012, 13-27 July
# [25] = Beltsville, MD 2012, 13-27 July, 14-day total, 4 traps/trtmt
# [26] = Beltsville, MD 2012, 19-29 June
# [27] = Beltsville, MD 2012, 19-29 June, 10-day total, 4 traps/trtmt
# [28] = Beltsville, MD 2012, 20 April-4 May, 14-day total, 4 traps/trtmt
# [29] = Beltsville, MD 2012, 21Sep-5 Oct
# [30] = Beltsville, MD 2012, 21Sep-5 Oct, 14-day total, 4 traps/trtmt
# [31] = Beltsville, MD 2012, 24Aug-7Sept
# [32] = Beltsville, MD 2012, 24Aug-7Sept, 14-day total, 4 traps/trtmt
# [33] = Beltsville, MD 2012, 27 July-10 Aug
# [34] = Beltsville, MD 2012, 27 July-10 Aug, 14-day total, 4 traps/trtmt
# [35] = Beltsville, MD 2012, 29 June-13 July
# [36] = Beltsville, MD 2012, 29 June-13 July, 14-day total, 4 traps/trtmt
# [37] = Beltsville, MD, 4 replicates, 6 April through 23 Oct. 2012
# [38] = Beltsville, MD, 6 April through 23 Oct. 2012
compound,measurement,setting,value
"CCC\C=C/C=C/C=C/C(=O)OC [Lure #3, Methyl (2E,4E,6Z)-decatrienoate]",adults captured,[1],999
same,adults captured (% of total),[1],17.9%
same,nymphs captured,[1],386
same,nymphs captured (% of total),[1],18.4%
same,adults captured (% of total),"Arden, WV 2012, Aug2-13",10.40%
same,nymphs captured (% of total),"Arden, WV 2012, Aug2-13",9.5%
same,adults captured,[2],7
same,nymphs captured,[2],38
same,adults captured (% of total),"Arden, WV 2012, Aug13-27",3.10%
same,nymphs captured (% of total),"Arden, WV 2012, Aug13-27",10.0%
same,adults captured,[3],4
same,nymphs captured,[3],51
same,adults captured (% of total),"Arden, WV 2012, Aug27-Sep10",1.60%
same,nymphs captured (% of total),"Arden, WV 2012, Aug27-Sep10",42.8%
same,adults captured,[4],3
same,nymphs captured,[4],68
same,adults captured (% of total),"Arden, WV 2012, July2-17",0%
same,nymphs captured (% of total),"Arden, WV 2012, July2-17",5.0%
same,adults captured,[5],0
same,nymphs captured,[5],8
same,adults captured (% of total),"Arden, WV 2012, July17-Aug2",0%
same,nymphs captured (% of total),"Arden, WV 2012, July17-Aug2",22.2%
same,adults captured,[6],0
same,nymphs captured,[6],8
same,adults captured (% of total),"Arden, WV 2012, June4-19",0%
same,adults captured,[7],0
same,nymphs captured,[7],0
same,adults captured (% of total),"Arden, WV 2012, June19-July2",0%
same,nymphs captured (% of total),"Arden, WV 2012, June19-July2",0%
same,adults captured,[8],0
same,nymphs captured,[8],0
same,adults captured (% of total),"Arden, WV 2012, May 16-23",0%
same,adults captured,[9],0
same,nymphs captured,[9],0
same,adults captured (% of total),"Arden, WV 2012, May23-Jun4",0%
same,adults captured,[10],0
same,nymphs captured,[10],0
same,adults captured (% of total),"Arden, WV 2012, Oct9-23",28.90%
same,nymphs captured (% of total),"Arden, WV 2012, Oct9-23",60.5%
same,adults captured,[11],120
same,nymphs captured,[11],20
same,adults captured (% of total),"Arden, WV 2012, Sep10-24",12.70%
same,nymphs captured (% of total),"Arden, WV 2012, Sep10-24",23.9%
same,adults captured,[12],333
same,nymphs captured,[12],135
same,adults captured (% of total),"Arden, WV 2012, Sep24-Oct9",25.20%
same,nymphs captured (% of total),"Arden, WV 2012, Sep24-Oct9",25.7%
same,adults captured,[13],532
same,nymphs captured,[13],58
same,Season-long total captures of BMSB adults,[14],999 b
same,Season-long total captures of BMSB nymphs,[14],386 b
same,"Season-long captures of BMSB adults, share of TOTAL",[15],17.9%
same,"Season-long captures of BMSB nymphs, share of TOTAL",[15],18.4%
same,adults captured (% of total),"Beltsville, MD 2012, 4-22 May",2.10%
same,adults captured,[16],2
same,nymphs captured,[16],0
same,adults captured (% of total),"Beltsville, MD 2012, 5-19 June",4.20%
same,nymphs captured (% of total),"Beltsville, MD 2012, 5-19 June",25.10%
same,adults captured,[17],6
same,nymphs captured,[17],63
same,adults captured (% of total),"Beltsville, MD 2012, 5-23Oct",17.50%
same,nymphs captured (% of total),"Beltsville, MD 2012, 5-23Oct",35.70%
same,adults captured,[18],6
same,nymphs captured,[18],5
same,adults captured (% of total),"Beltsville, MD 2012, 6-20 April",10.20%
same,adults captured,[19],6
same,nymphs captured,[19],0
same,adults captured (% of total),[20],10.40%
same,nymphs captured (% of total),[20],28.30%
same,adults captured,[21],1203
same,nymphs captured,[21],1823
same,adults captured (% of total),"Beltsville, MD 2012, 7-21 Sept",20.30%
same,nymphs captured (% of total),"Beltsville, MD 2012, 7-21 Sept",30.00%
same,adults captured,[22],314
same,nymphs captured,[22],36
same,adults captured (% of total),"Beltsville, MD 2012, 10-24 Aug",4.60%
same,nymphs captured (% of total),"Beltsville, MD 2012, 10-24 Aug",14.80%
same,adults captured,[23],7
same,nymphs captured,[23],212
same,adults captured (% of total),[24],0.00%
same,nymphs captured (% of total),[24],20.30%
same,adults captured,[25],0
same,nymphs captured,[25],13
same,adults captured (% of total),[26],0.00%
same,nymphs captured (% of total),[26],1.30%
same,adults captured,[27],0
same,nymphs captured,[27],6
same,adults captured (% of total),"Beltsville, MD 2012, 20 April-4 May",21.90%
same,adults captured,[28],7
same,nymphs captured,[28],0
same,adults captured (% of total),[29],27.90%
same,nymphs captured (% of total),[29],40.50%
same,adults captured,[30],440
same,nymphs captured,[30],17
same,adults captured (% of total),"Beltsville, MD 2012, 22 May-5 June",2.90%
same,nymphs captured (% of total),"Beltsville, MD 2012, 22May-5June",38.90%
same,adults captured,"Beltsville, MD 2012, 22 May-5 June, 14-day total, 4 traps/trtmt",3
same,nymphs captured,"Beltsville, MD 2012, 22May-5June, 14-day total, 4 traps/trtmt",7
same,adults captured (% of total),[31],22.20%
same,nymphs captured (% of total),[31],41.80%
same,adults captured,[32],393
same,nymphs captured,[32],1018
same,adults captured (% of total),[33],6.10%
same,nymphs captured (% of total),[33],30.80%
same,adults captured,[34],14
same,nymphs captured,[34],406
same,adults captured (% of total),[35],8.60%
same,nymphs captured (% of total),[35],14.50%
same,adults captured,[36],5
same,nymphs captured,[36],40
same,Season-long total captures of BMSB adults,[37],1203 b
same,Season-long total captures of BMSB nymphs,[37],1823 b
same,"Season-long captures of BMSB adults, share of TOTAL",[38],20.4%
same,"Season-long captures of BMSB nymphs, share of TOTAL",[38],28.3%
